Measurements taken from BindingDB's records for doi:10.1021/jm00113a020 (Case Western Reserve University, 1991).
Starred links: 1 amine or outer side, 2 acyl side, 3 side chain; linkers in the order of their positions; H or OH if unused. Residues, ends and D or L forms follow the SMILES beside them. Ethylenediamine = C(CN[*:2])N[*:1]; GABA = NCCCC(=O)O

Assay: The compound was tested for binding activity towards Opioid receptor delta 1 in guinea pig brain membranes.

In the case of NCCCC(=O)NCCN(CCN(CCNC(=O)[C@H](Cc1ccccc1)NC(=O)CNC(=O)CNC(=O)[C@@H](N)Cc1ccc(O)cc1)C(=O)CCCN)C(=O)CCCN [4-Amino-N-[2-(4-amino-butyrylamino)-ethyl]-N-[2-((4-amino-butyryl)-{2-[2-(2-{2-[2-amino-3-(4-hydroxy-phenyl)-propionylamino]-acetylamino}-acetylamino)-3-phenyl-propionylamino]-ethyl}-amino)-ethyl]-butyramide] (HELM PEPTIDE1{Y.G.G.F.[NCCCC(=O)NCCN(CCN(CCN[*:1])C(=O)CCCN)C(=O)CCCN]}$$$$V2.0), the Ki is reported as over 10 µM.
In the case of CC[C@H](C)[C@H](NC(=O)[C@H](CCCN=C(N)N)NC(=O)[C@H](CCCN=C(N)N)NC(=O)[C@H](CC(C)C)NC(=O)[C@H](Cc1ccccc1)NC(=O)CNC(=O)CNC(=O)[C@@H](N)Cc1ccc(O)cc1)C(=O)N[C@@H](CCCN=C(N)N)C(=O)N1CCC[C@H]1C(=O)N[C@@H](CCCCN)C(=O)N[C@@H](CC(C)C)C(=O)N[C@@H](CCCCN)C(=O)O [Dynorphin A (1-13)], the Ki is reported as 0.016 µM.
NCCCC(=O)NCCNC(=O)[C@H](Cc1ccccc1)NC(=O)CNC(=O)CNC(=O)[C@@H](N)Cc1ccc(O)cc1 (H-YGGF-{Ethylenediamine-GABA}) showed a Ki of 10.1 µM.
Work on NCCCC(=O)NCCCN(CCCNC(=O)[C@H](Cc1ccccc1)NC(=O)CNC(=O)CNC(=O)[C@@H](N)Cc1ccc(O)cc1)C(=O)CCCN (HELM PEPTIDE1{Y.G.G.F.[NCCCC(=O)NCCCN(CCCN[*:1])C(=O)CCCN]}$$$$V2.0) yielded a Ki of 8.43 µM.
NCCCC(=O)NCCN(CCNC(=O)[C@H](Cc1ccccc1)NC(=O)CNC(=O)CNC(=O)[C@@H](N)Cc1ccc(O)cc1)C(=O)CCCN (HELM PEPTIDE1{Y.G.G.F.[NCCCC(=O)NCCN(CCN[*:1])C(=O)CCCN]}$$$$V2.0) showed a Ki of 22.7 µM.
